Measurements from patent publication US9399638B2, “Substituted pyridine compounds as CRAC modulators” (LUPIN LIMITED, priority 2012, dated 2016).

tested on: IL-2 secretion by Jurkat T cells; experiment: Inhibition of IL-2 secretion; format: cell-based; conditions: Homo sapiens; Jurkat T cells stimulated with PHA, 20 to 24 hours, IL-2 by ELISA
Procedure: The CRAC channel modulatory activity of the compounds were thus evaluated by measuring the secretion of IL-2 by antigen stimulated T-cells in vitro. Alternatively, such activity can also be evaluated by assay methods known to one skilled in the art.
Inhibition of IL-2 secretion: Jurkat T cells were seeded at a density of 0.5 to 1 million cells per well in RPMI medium. Test compounds from this invention were added to the cells at different concentrations. This was followed by the addition of PHA, a T cell mitogen after 10 minutes. The cells were then incubated for 20 to 24 hours in a CO2 incubator at 37° C. After incubation with the compounds, cells were centrifuged, the supernatant was collected and processed for ELISA to quantitate the amount of IL-2 secreted. A commercial ELISA kit (R&D Systems, Inc. Minneapolis, Minn., USA) was used to estimate the IL-2 concentrations. Amount of IL-2 secreted by cells stimulated with PHA was considered as a 100% maximal signal and the decrease in amount of IL-2 secreted by cells treated with the test compounds was expressed as percent inhibition of the maximal signal. The dose response data was analyzed using 4-parametric sigmoidal dose response (variable slope) curve—fit.

SMILES | IC50 [µM]
CCc1ncc(-c2nn(C)c(=O)o2)cc1-c1ccc(NC(=O)c2c(C)noc2C)cc1 [Example 50, N-(4-(2-Ethyl-5-(4-methyl-5-oxo-4,5-dihydro-1,3,4-oxadiazol-2-yl)pyridin-3-yl)phenyl)-3,5-dimethylisoxazole-4-carboxamide] | > 1
CCc1ncc(-c2nn(C)c(=O)o2)cc1-c1ccc(NC(=O)c2ccncc2C)cc1 [Example 51, N-(4-(2-Ethyl-5-(4-methyl-5-oxo-4,5-dihydro-1,3,4-oxadiazol-2-yl)pyridin-3-yl)phenyl)-3-methylisonicotinamide] | > 1
Cc1ncc(-c2nn(C)c(=O)o2)cc1-c1cnc(NC(=O)c2c(F)cccc2F)cn1 [Example 55, 2,6-Difluoro-N-(5-(2-methyl-5-(4-methyl-5-oxo-4,5-dihydro-1,3,4-oxadiazol-2-yl)pyridin-3-yl)pyrazin-2-yl)benzamide] | 0.1 to 1
CNc1ncc(-c2nn(C)c(=O)o2)cc1-c1cnc(NC(=O)c2c(F)cccc2F)cn1 [Example 56, 2,6-Difluoro-N-(5-(5-(4-methyl-5-oxo-4,5-dihydro-1,3,4-oxadiazol-2-yl)-2-(methylamino)pyridin-3-yl)pyrazin-2-yl)benzamide] | > 1
Cc1ncc(-c2nn(C)c(=O)o2)cc1-c1ccc(C(=O)Nc2c(F)cccc2F)s1 [Example 58, N-(2,6-Difluorophenyl)-5-(2-methyl-5-(4-methyl-5-oxo-4,5-dihydro-1,3,4-oxadiazol-2-yl)pyridin-3-yl)thiophene-2-carboxamide] | 0.1 to 1
Cc1ncc(-c2nn(C)c(=O)o2)cc1-c1ccc(C(=O)Nc2c(F)cccc2F)n1C [Example 62, N-(2,6-Difluorophenyl)-1-methyl-5-(2-methyl-5-(4-methyl-5-oxo-4,5-dihydro-1,3,4-oxadiazol-2-yl)pyridin-3-yl)-1H-pyrrole-2-carboxamide] | 0.1 to 1
CCc1ncc(-c2nn(C)c(=O)o2)cc1-c1ccc(C(=O)Nc2c(F)cccc2F)n1C [Example 63, N-(2,6-Difluorophenyl)-5-(2-ethyl-5-(4-methyl-5-oxo-4,5-dihydro-1,3,4-oxadiazol-2-yl)pyridin-3-yl)-1-methyl-1H-pyrrole-2-carboxamide] | > 1
CCc1cc(-c2ccc(NC(=O)c3c(F)cccc3F)cc2)nc(-c2nn(C)c(=O)o2)c1 [Example 64, N-(4-(4-Ethyl-6-(4-methyl-5-oxo-4,5-dihydro-1,3,4-oxadiazol-2-yl)pyridin-2-yl)phenyl)-2,6-difluorobenzamide] | > 1
CCc1cc(-c2nn(C)c(=O)o2)cnc1-c1ccc(NC(=O)c2c(F)cccc2F)cc1 [Example 65, N-(4-(3-Ethyl-5-(4-methyl-5-oxo-4,5-dihydro-1,3,4-oxadiazol-2-yl)pyridin-2-yl)phenyl)-2,6-difluorobenzamide] | > 1
Cn1nc(-c2cnc(-c3ccc(NC(=O)c4c(F)cccc4F)cc3)c(C3CC3)c2)oc1=O [Example 66, N-(4-(3-Cyclopropyl-5-(4-methyl-5-oxo-4,5-dihydro-1,3,4-oxadiazol-2-yl)pyridin-2-yl)phenyl)-2,6-difluorobenzamide] | 0.1 to 1
Cn1nc(-c2cc(C3CC3)cnc2-c2ccc(NC(=O)c3c(F)cccc3F)cc2)oc1=O [Example 67, N-(4-(5-Cyclopropyl-3-(4-methyl-5-oxo-4,5-dihydro-1,3,4-oxadiazol-2-yl)pyridin-2-yl)phenyl)-2,6-difluorobenzamide] | > 1
CCc1ncc(-c2ccc(NC(=O)c3c(F)cccc3F)cc2)cc1-c1nn(C)c(=O)o1 [Example 68, N-(4-(6-Ethyl-5-(4-methyl-5-oxo-4,5-dihydro-1,3,4-oxadiazol-2-yl)pyridin-3-yl)phenyl)-2,6-difluorobenzamide] | > 1

Results, then the compound that gave them:

IC50 [µM] | SMILES
0.1 to 1 | CCc1ncc(-c2nn(C)c(=O)o2)cc1-c1ccc(NC(=O)c2c(C)cccc2F)cc1 [Example 47, N-(4-(2-Ethyl-5-(4-methyl-5-oxo-4,5-dihydro-1,3,4-oxadiazol-2-yl)pyridin-3-yl)phenyl)-2-fluoro-6-methylbenzamide]
0.1 to 1 | CCc1ncc(-c2nn(C)c(=O)o2)cc1-c1ccc(NC(=O)c2c(F)cccc2Cl)cc1 [Example 48, 2-Chloro-N-(4-(2-ethyl-5-(4-methyl-5-oxo-4,5-dihydro-1,3,4-oxadiazol-2-yl)pyridin-3-yl)phenyl)-6-fluorobenzamide]
0.1 to 1 | CCc1ncc(-c2nn(C)c(=O)o2)cc1-c1ccc(NC(=O)c2snnc2C)cc1 [Example 49, N-(4-(2-Ethyl-5-(4-methyl-5-oxo-4,5-dihydro-1,3,4-oxadiazol-2-yl)pyridin-3-yl)phenyl)-4-methyl-1,2,3-thiadiazole-5-carboxamide]
0.1 to 1 | CCc1ncc(-c2nn(C)c(=O)o2)cc1-c1cnc(NC(=O)c2c(F)cccc2F)cn1 [Example 53, 2,6-Difluoro-N-(5-(2-ethyl-5-(4-methyl-5-oxo-4,5-dihydro-1,3,4-oxadiazol-2-yl)pyridin-3-yl)pyrazin-2-yl)benzamide]
< 0.1 | CCc1ncc(-c2nn(C)c(=O)o2)cc1-c1cnc(NC(=O)c2c(F)cccc2Cl)cn1 [Example 54, 2-Chloro-N-(5-(2-ethyl-5-(4-methyl-5-oxo-4,5-dihydro-1,3,4-oxadiazol-2-yl)pyridin-3-yl)pyrazin-2-yl)-6-fluorobenzamide]
< 0.1 | CCc1ncc(-c2nn(C)c(=O)o2)cc1-c1ccc(C(=O)Nc2c(F)cccc2F)s1 [Example 57, N-(2,6-Difluorophenyl)-5-(2-ethyl-5-(4-methyl-5-oxo-4,5-dihydro-1,3,4-oxadiazol-2-yl)pyridin-3-yl)thiophene-2-carboxamide]
< 0.1 | Cn1nc(-c2cnc(C3CC3)c(-c3ccc(C(=O)Nc4c(F)cccc4F)s3)c2)oc1=O [Example 59, 5-(2-Cyclopropyl-5-(4-methyl-5-oxo-4,5-dihydro-1,3,4-oxadiazol-2-yl)pyridin-3-yl)-N-(2,6-difluorophenyl)thiophene-2-carboxamide]
< 0.1 | Cn1nc(-c2cnc(C(F)(F)F)c(-c3ccc(C(=O)Nc4c(F)cccc4F)s3)c2)oc1=O [Example 60, N-(2,6-Difluorophenyl)-5-(5-(4-methyl-5-oxo-4,5-dihydro-1,3,4-oxadiazol-2-yl)-2-(trifluoromethyl)pyridin-3-yl)thiophene-2-carboxamide]
< 0.1 | CNc1ncc(-c2nn(C)c(=O)o2)cc1-c1ccc(C(=O)Nc2c(F)cccc2F)s1 [Example 61, N-(2,6-Difluorophenyl)-5-(5-(4-methyl-5-oxo-4,5-dihydro-1,3,4-oxadiazol-2-yl)-2-(methylamino)pyridin-3-yl)thiophene-2-carboxamide]
